≈ marks a conversion by molar mass, not a printed value. Like-named read-outs stand apart in the source and are kept apart here.
Tests used:
PSN1 cells = type: in vivo; conditions: for TGI: endpoint (day 31), TGITV; for mice died: 8 mice per group
Experimental: • M-NSG mice: SPF grade, female, 6-8 weeks old, weighing 16-20 g, purchased from Shanghai Model Organisms Technology Co., Ltd. • PSN1 cells: purchased from ATCC;
PSN1 cells were cultured in an incubator at 37°C and 5% CO2 in RPMI-1640 medium containing 10% inactivated fetal bovine serum. Cells were subcultured by passaging into new culture dishes every 2 to 3 days when they reach confluent.
• 8.2.3.1 PSN1 cells in the logarithmic growth phase were taken and resuspended in PBS. The cell suspension was inoculated subcutaneously into the right flank of M-NSG mice using a 1mL syringe (inoculated cell count: 5E6/mouse + 30%M). The survival status of the mice and the subcutaneous tumor formation were observed every other day. • 8.2.3.2 On the day of grouping, mice were randomly divided into 8 groups with 8 mice in each group based on the average tumor volume (~190 mm^3) and mouse body weight; • 8.2.3.3 The mice were dosed according to the grouping scheme, all by intragastric administration. […]. The hair condition and status of the mice were observed, and the body weight and tumor size were recorded twice a week to calculate TGI%. • 8.2.3.4 Grouping of Test Animals
When the average tumor volume reached ~ 190 mm^3, mice with moderate individual tumor volume were selected for inclusion in the group. The animals were randomly assigned to experimental groups according to tumor volume and mouse weight, with 8 mice in each group. Administration started one day after grouping.
TV = 1/2 × a × b2 [formula] wherein: a represents the long diameter of the tumor; b represents the short diameter of the tumor.
RTV = Vt /Vinitial × 100(%) [formula]
T/C(%) = (TRTV/CRTV) × 100% [formula]
TGI = [1−(TVt/TVinitial)/([…])] × 100% [formula]
wherein, TVt represents the tumor volume of the treatment group at each measurement; TVinitial represents the tumor volume of the treatment group at the time of grouping and administration; CVt represents the tumor volume of the control group at each measurement; CVinitial represents the tumor volume of the control group at the time of grouping and administration.
Body Weight Change Rate = (BWfinal-BWinitial) / BWinitial × 100% [formula] wherein, BWinitial represents the animal body weight at the time of grouping and administration; BWfinal represents the animal body weight at each measurement.
The original data of measurement and observation must be recorded. The analysis and processing are based on the original data, and the results are presented as mean and standard error of the mean (Mean ± SEM). T-test is used to analyze the difference in tumor volume between the control group and the treatment group. P < 0.05 indicates statistical significance.

in vivo = conditions: iv
Experimental: The objective of this study is to investigate the pharmacokinetic properties of the disclosed compounds after tail vein intravenous injection (IV) and oral administration (PO) in female CD1 mice. Plasma was sampleed at 0, 0.083, 0.25, 0.5, 1, 2, 4, 7 and 24 hours post-dosing, and the drug concentrations in plasma at different time points were detected by LC-MS/MS, and the relevant pharmacokinetic parameters were calculated using WinNonlin software.
Experimental female CD1 mice were purchased from SPF Laboratory Animal Technology Co., Ltd., aged 6-8 weeks with body weights of 20-30 g. The female CD1 mice were housed in a controlled environment (set temperature at 20-25°C and relative humidity at 40-70%). A 12-hour light/12-hour dark cycle was maintained unless interrupted by study-related events.
Compound solutions are prepared in an ultra-clean workbench and prepared immediately before use, and mixed thoroughly prior to use to ensure formulation homogeneity.
Vehicle composition: 10% DMSO+90% (20%SBE-β-CD) Table 4. Doses Used in IV Administration
Vehicle composition: 10% DMSO + 90% (20%SBE-β-CD) Table 5. Doses Used in PO Administration
Vehicle composition: 0.5% MC + 1% Tween-20 Table 6. Doses Used in PO Administration
Prior to the experiment, the animals were randomly grouped. The mice were fasted for 12 hours before drug administration, and free feeding was resumed 4 hours after administration.
All blood samples were transferred into plastic microcentrifuge tubes containing anticoagulant (EDTA-K2), and then centrifuged at 4000 g for 5 minutes at 4°C. The supernatant was transferred into a microcentrifuge tube without anticoagulant, and the plasma was stored in a -75±15°C refrigerator until detection.
The blood samples were purified by HPLC and analyzed by mass spectrometry to obtain the plasma concentration-time curve of the disclosed compound.
The pharmacokinetic parameters were estimated by non-compartmental model method (calculated by Phoenix WinNonlin software).

[1] = Thermodynamic solubility test; type: physicochemical; conditions: phosphate buffer, aqueous buffer, thermodynamic from solid, pH 7.4, 25°C
Experimental: Weigh 7.098 g Na2HPO4 (Solution A) and dissolve in 500 mL ultrapure water via sonication; weigh 3.40 g KH2PO4 (Solution B) and dissolve in 250 mL ultrapure water via sonication. Slowly add Solution B dropwise to Solution A and adjust the pH to 7.40 ± 0.05.
Shake at 1100 rpm, 25°C for 5 minutes; • i) Add 10 µL of the 1 mg/mL DMSO sample and 10 µL of buffer to 980 µL of methanol, then dilute 10-fold with methanol:water (1:1) as the standard sample for LC-MS/MS analysis.
Solubility was calculated using Excel. Solubility(μM) = (Areafiltered × DFfiltered)/(Areastd × DFstd) × [std] × DFstd [formula]

[2] = system: pancreatic cancer cell line (PSN1); assay: Proliferation inhibitory activity on cell line PSN1 (CellTiter-Glo, 72 hours); type: cell-based; conditions: for IC50: Homo sapiens, PSN1 cell proliferation; for Max Inhibition Percentage: PSN1 cells
Experimental: • a) Adherent cells need to be digested and centrifuged, while suspension cells can be directly centrifuged; • b) Resuspend with complete culture medium and count using an automatic cell counter; • c) Plate 6,000 cells per well for PSN1, and dilute the cell suspension to the required density; • d) Add 100 µL of cells per well, and culture overnight at 37°C in a 5% CO2 incubator to stabilize and balance the cells.
• a) Prepare the compound with DMSO as a solution of 200-fold final concentration; • b) Dilute the 200-fold compound to a 3-fold final concentration with complete culture medium; • c) Add 50 µL of the compound per well, use wells with the same volume of culture medium as controls, and continue culturing in a 37°C, 5% CO2 incubator for 72 hours.
• a) Equilibrate the cell plate and CTG reagent to room temperature; • b) Add 30 µL of CellTiter-Glo® reagent per well; • c) Incubate at room temperature for 15 minutes; • d) Detect with a microplate reader.
• 1) Calculate IC50 using GraphPad Prism 8; • 2) %Inh = (1-(Raw data - Meanmin) / (Meanmax - Meanmin))×100; • 3) Meanmax is the positive control well with only cells and the same volume of culture medium; • 4) Meanmin is the negative control well with only culture medium; • 5) Raw data refers to the signal values of wells with added compounds. For two replicate wells, they are denoted as Raw1 and Raw2.

[3] = 60 mg/kg p.o. QD*6 times, during administration
[4] = female, CD1, mouse, plasma, 10 mg/kg
[5] = female, CD1, mouse, plasma, 2 mg/kg

Row | Compound | solubility at 24 h [1] | IC50 [2] | Max Inhibition Percentage ([2]; first column of this head) | Max Inhibition Percentage ([2]; second column of this head) | Mouse Mortality Rate (PSN1 cells; 60 mg/kg p.o. QD*6 times) | mice died (PSN1 cells; 60 mg/kg p.o. QD*6 times) | body weight loss (PSN1 cells; [3]) | AUC(0-t) (in vivo; [4]) | Vd (in vivo; [4]) | clearance (in vivo; [4]) | half-life (in vivo; [4]) | also measured
1 | [2H]C1([2H])CN(c2ccc(OC(F)(F)F)c(Nc3ncc4c(n3)-c3c(c(C(N)=O)nn3CCO)CC4)c2)C([2H])([2H])[C@H]2CCCN21 [CPD04] | 3 µg/mL (≈ 5.33 µM) | 105 nM | 87.6 | 1.3 |  |  |  |  |  |  |  | Mouse Mortality Rate (PSN1 cells; 90 mg/kg p.o. QD*6 times): 0%; mouse death (PSN1 cells; 90 mg/kg p.o. QD*6 times): no mouse death was found; TGI (PSN1 cells; 90 mg/kg p.o. QD*6 times): 40%; body weight loss (PSN1 cells; 90 mg/kg p.o. QD*6 times, throughout the period): no body weight loss was observed; AUC(0-t) (in vivo; mouse, in vivo, 10 mg/kg): 3340 ng·h/mL; Vd (in vivo; mouse, in vivo, 10 mg/kg): 2.31 L/kg; clearance (in vivo; mouse, in vivo, 10 mg/kg): 50.1 mL/min/kg; half-life (in vivo; mouse, in vivo, 10 mg/kg): 1.06 h
2 | [2H]C1([2H])N(C)C([2H])([2H])C([2H])([2H])N(c2ccc(OC(F)(F)F)c(Nc3ncc4c(n3)-c3c(c(C(N)=O)nn3CCO)CC4)c2)C1([2H])[2H] [CPD06] | 22.6 µg/mL (≈ 41.8 µM) | 57 nM | 93.7 | 13.7 | 0% | No mice died | ≤ 15% | 3050 ng·h/mL | 3.02 L/kg | 55.1 mL/min/kg | 1.05 h | TGI (PSN1 cells; 60 mg/kg p.o. QD*6 times): 53%
3 | CN1CCN(c2ccc(OC(F)(F)F)c(Nc3ncc4c(n3)-c3c(c(C(N)=O)nn3CCO)CC4)c2)CC1 [NMS-P937, onvansertib, reference compound] | 24.8 µg/mL (≈ 46.6 µM) | 53.7 nM | 85.9 | 2.3 | 50% | half | decreased severely | 4540 ng·h/mL | 3.22 L/kg | 36.9 mL/min/kg | 3.52 h | AUC(0-t) (in vivo; [5]): 353 ng·h/mL; Vd (in vivo; [5]): 5.71 L/kg; clearance (in vivo; [5]): 95.7 mL/min/kg; half-life (in vivo; [5]): 1.52 h

— patent EP4653443A1, “STEREOISOMER AND DEUTERATED DERIVATIVE OF PYRAZOLOQUINAZOLINE COMPOUND AND USE” (Phil Rivers Technology Co., Ltd, priority 2023, dated 2024)
